Assay results: patent publication US20080200448A1, “New Pyridine Analogues VIII 518” (ASTRAZENECA AB, priority 2007, published 2008)

biological target: T1, P2Y12 receptor (Homo sapiens, UniProt Q9H244); assay: Functional inhibition of 2-Me-S-ADP induced P2Y12 signalling (35S-GTPγS binding, cell membranes); type: biochemical; details: 35S-GTPγS assay, membranes, EC80 concentration of 2-methyl-thio-adenosine diphosphate, 30° C. for 45 min; read-out: GTPγS (IC50 μM)
T1 construct: expressed in transfected cells; host or cells: CHO cells (membrane preparation)
Description: Functional inhibition of- the P2Y12 receptor can be measured by in vitro assays using cell membranes from P2Y12 transfected CHO-cells, the methodology is indicated below.
Functional inhibition of 2-Me-S-ADP induced P2Y12 signalling: 5 μg of membranes were diluted in 200 μl of 200 mM NaCl, 1 mM MgCl2, 50 mM HEPES (pH 7.4), 0.01% BSA, 30 μg/ml saponin and 10 μM GDP. To this was added an EC80 concentration of agonist (2-methyl-thio-adenosine diphosphate), the required concentration of test compound and 0.1 μCi ^35S-GTPγS. The reaction was allowed to proceed at 30° C. for 45 min. Samples were then transferred on to GF/B filters using a cell harvester and washed with wash buffer (50 mM Tris (pH 7.4), 5 mM MgCl2, 50 mM NaCl). Filters were then covered with scintilant and counted for the amount of ^35S-GTPγS retained by the filter. Maximum activity was that determined in the presence of the agonist and minimum activity in the absence of the agonist following subtraction of the value determined for non-specific activity. The effect of compounds at various concentrations was plotted according to the equation
y=A+((B−A)/(1+((C/x)̂D)))
and IC50 estimated where A is the bottom plateau of the curve i.e. the final minimum y value B is the top of the plateau of the curve i.e. the final maximum y value C is the x value at the middle of the curve. This represents the log EC50 value when A+B=100 D is the slope factor. x is the original known x values. Y is the original known y values.

T1 sequence (Q9H244 whole entry): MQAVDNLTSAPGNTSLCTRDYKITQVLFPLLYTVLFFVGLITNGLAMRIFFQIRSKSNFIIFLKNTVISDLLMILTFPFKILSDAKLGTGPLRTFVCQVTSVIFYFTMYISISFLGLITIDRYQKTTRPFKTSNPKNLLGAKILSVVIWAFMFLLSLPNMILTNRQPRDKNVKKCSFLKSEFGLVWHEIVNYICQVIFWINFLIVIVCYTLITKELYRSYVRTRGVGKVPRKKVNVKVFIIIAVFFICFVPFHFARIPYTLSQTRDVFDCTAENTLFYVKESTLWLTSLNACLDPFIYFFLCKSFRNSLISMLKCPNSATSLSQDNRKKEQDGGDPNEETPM

Going from `CCOC(=O)c1cc(C#N)c(N2CCC(C(=O)NS(=O)(=O)Cc3ccccc3)CC2)nc1CS(C)(=O)=O` [Example 12, Ethyl 6-{4-[(benzylsulfonyl)carbamoyl]piperidin-1-yl}-5-cyano-2-[(methylsulfonyl)methyl]nicotinate] to `CCOC(=O)c1cc(C#N)c(N2CCC(C(=O)NS(=O)(=O)Cc3ccccc3)CC2)nc1CN(C)C` [Example 4, Ethyl 6-{4-[(benzylsulfonyl)carbamoyl]piperidin-1-yl}-5-cyano-2-[(dimethylamino)methyl]nicotinate], the IC50 rises from 0.129 µM to 0.282 µM (2.2-fold). The first is the more potent here.

Going from `CC(C)OC(=O)c1cc(C#N)c(N2CCC(C(=O)NS(=O)(=O)CC3CCOCC3)CC2)nc1CN1CCCC1=O` [Example 73, Isopropyl 5-cyano-2-[(2-oxopyrrolidin-1-yl)methyl]-6-(4-{[(tetrahydro-2H-pyran-4-ylmethyl)sulfonyl]carbamoyl}piperidin-1-yl)nicotinate] to `CCOC(=O)c1cc(C#N)c(N2CCC(C(=O)NS(=O)(=O)CC3CCOCC3)CC2)nc1CN1CCCC1=O` [Example 72, Ethyl 5-cyano-2-[(2-oxopyrrolidin-1-yl)methyl]-6-(4-{[(tetrahydro-2H-pyran-4-ylmethyl)sulfonyl]carbamoyl}piperidin-1-yl)nicotinate], the IC50 falls from > 3.3 µM to 0.725 µM.

Compared with `CCOC(=O)c1cc(C#N)c(N2CCC(C(=O)NS(=O)(=O)Cc3ccccc3)CC2)nc1CSc1nccn1C` [Example 118, Ethyl 6-{4-[(benzylsulfonyl)carbamoyl]piperidin-1-yl}-5-cyano-2-{[(1-methyl-1H-imidazol-2-yl)thio]methyl}nicotinate], `CCOC(=O)c1cc(C#N)c(N2CCC(C(=O)NS(=O)(=O)Cc3ccccc3)CC2)nc1CSCc1nccn1C` [Example 116, Ethyl 6-{4-[(benzylsulfonyl)carbamoyl]piperidin-1-yl}-5-cyano-2-({[(1-methyl-1H-imidazol-2-yl)methyl]thio}methyl)nicotinate] is 20-fold higher in IC50: 0.052 µM for the first, 1.05 µM for the second.

Going from `CCOC(=O)c1cc(C#N)c(N2CCC(C(=O)NS(=O)(=O)Cc3ccccc3)CC2)nc1COC(=O)CO` [Example 16, Ethyl 6-{4-[(benzylsulfonyl)carbamoyl]piperidin-1-yl}-5-cyano-2-[(glycoloyloxy)methyl]nicotinate] to `CCOC(=O)c1cc(C#N)c(N2CCC(C(=O)NS(=O)(=O)Cc3ccccc3)CC2)nc1CSCC(=O)N(C)C` [Example 123, Ethyl 6-{4-[(benzylsulfonyl)carbamoyl]piperidin-1-yl}-5-cyano-2-({[2-(dimethylamino)-2-oxoethyl]thio}methyl)nicotinate], the IC50 rises from 0.015 µM to 0.057 µM (3.8-fold).

First: CCOC(=O)COc1nc(N2CCC(C(=O)NS(=O)(=O)Cc3ccccc3)CC2)c(C#N)cc1C(=O)OCC [Example 8, Ethyl 6-{4-[(benzylsulfonyl)carbamoyl]piperidin-1-yl}-5-cyano-2-(2-ethoxy-2-oxoethoxy)nicotinate]
Second: CCOC(=O)CSc1nc(N2CCC(C(=O)NS(=O)(=O)Cc3ccccc3)CC2)c(C#N)cc1C(=O)OCC [Example 126, Ethyl 6-{4-[(benzylsulfonyl)carbamoyl]piperidin-1-yl}-5-cyano-2-[(2-ethoxy-2-oxoethyl)thio]nicotinate]
The IC50 of the first is 3.5-fold higher: 0.039 µM for the first, 0.011 µM for the second. The second is the more potent here.

Going from `CCOC(=O)c1cc(C#N)c(N2CCC(C(=O)NS(=O)(=O)CC3CCC(C)CC3)CC2)nc1CN1CCCCC1=O` (stereo not shown) [Example 58, Ethyl 5-cyano-6-[4-({[(4-methylcyclohexyl)methyl]sulfonyl}carbamoyl)piperidin-1-yl]-2-[(2-oxopiperidin-1-yl)methyl]nicotinate] to `CCOC(=O)c1cc(C#N)c(N2CCC(C(=O)NS(=O)(=O)CC3CCC3)CC2)nc1CN1CCCC1=O` [Example 74, Ethyl 5-cyano-6-(4-{[(cyclobutylmethyl)sulfonyl]carbamoyl}piperidin-1-yl)-2-[(2-oxopyrrolidin-1-yl)methyl]nicotinate], the IC50 falls from 0.164 µM to 0.037 µM (4.4-fold). The second is the more potent here.

Going from `COC(=O)c1cc(Cl)c(N2CCC(C(=O)NS(=O)(=O)Cc3ccccc3)CC2)nc1CN1CCCCC1=O` [Example 129, Methyl 6-{4-[(benzylsulfonyl)carbamoyl]piperidin-1-yl}-5-chloro-2-[(2-oxopiperidin-1-yl)methyl]nicotinate] to `CCOC(=O)c1cc(C#N)c(N2CCC(C(=O)NS(=O)(=O)Cc3ccccc3)CC2)nc1CN1CCCCC1=O` [Example 56, Ethyl 6-{4-[(benzylsulfonyl)carbamoyl]piperidin-1-yl}-5-cyano-2-[(2-oxopiperidin-1-yl)methyl]nicotinate], the IC50 falls from 1.58 µM to 0.03 µM (53-fold). The second is the more potent here.

Compared with `CCOC(=O)c1cc(Cl)c(N2CCC(C(=O)NS(=O)(=O)Cc3ccc(OC)cc3)CC2)nc1CN1CCCC1=O` [Example 88, Ethyl 5-chloro-6-(4-{[(4-methoxybenzyl)sulfonyl]carbamoyl}piperidin-1-yl)-2-[(2-oxopyrrolidin-1-yl)methyl]nicotinate], `CCOC(=O)c1cc(C#N)c(N2CCC(C(=O)NS(=O)(=O)Cc3ccc(OC)cc3)CC2)nc1CN1CCCC1=O` [Example 75, Ethyl 5-cyano-6-(4-{[(4-methoxybenzyl)sulfonyl]carbamoyl}piperidin-1-yl)-2-[(2-oxopyrrolidin-1-yl)methyl]nicotinate] is 11-fold lower in IC50: 0.081 µM for the first, 0.0075 µM for the second.

Compared with `CCOC(=O)c1cc(C#N)c(N2CCC(C(=O)NS(=O)(=O)Cc3ccc(C(F)(F)F)cc3)CC2)nc1CN1CCCCC1=O` [Example 59, Ethyl 5-cyano-2-[(2-oxopiperidin-1-yl)methyl]-6-[4-({[4-(trifluoromethyl)benzyl]sulfonyl}carbamoyl)piperidin-1-yl]nicotinate], `CCOC(=O)c1cc(C#N)c(N2CCC(C(=O)NS(=O)(=O)Cc3ccc(C(C)(C)C)cc3)CC2)nc1CN1CCCCC1=O` [Example 103, Ethyl 6-(4-{[(4-tert-butylbenzyl)sulfonyl]carbamoyl}piperidin-1-yl)-5-cyano-2-[(2-oxopiperidin-1-yl)methyl]nicotinate] is 13-fold higher in IC50: 0.029 µM for the first, 0.376 µM for the second.

Compared with `CC(C)OC(=O)c1cc(C#N)c(N2CCC(C(=O)NS(=O)(=O)Cc3ccc(Cl)cc3Cl)CC2)nc1CN1CCCC1=O` [Example 53, Isopropyl 5-cyano-6-(4-{[(2,4-dichlorobenzyl)sulfonyl]carbamoyl}piperidin-1-yl)-2-[(2-oxopyrrolidin-1-yl)methyl]nicotinate], `CCOC(=O)c1cc(C#N)c(N2CCC(C(=O)NS(=O)(=O)Cc3ccc(F)cc3Cl)CC2)nc1CN1CCCC1=O` [Example 43, Ethyl 6-(4-{[(2-chloro-4-fluorobenzyl)sulfonyl]carbamoyl}piperidin-1-yl)-5-cyano-2-[(2-oxopyrrolidin-1-yl)methyl]nicotinate] is 1.8-fold lower in IC50: 0.032 µM for the first, 0.018 µM for the second. The second is the more potent here.

First: CCOC(=O)c1ccc(N2CCC(C(=O)NS(=O)(=O)Cc3ccccc3)CC2)nc1CN1CCCC1=O [Example 86, Ethyl 6-{4-[(benzylsulfonyl)carbamoyl]piperidin-1-yl}-2-[(2-oxopyrrolidin-1-yl)methyl]nicotinate]
Second: CCOC(=O)c1cc(C#N)c(N2CCC(C(=O)NS(=O)(=O)Cc3ccccc3)CC2)nc1CSCCNC(C)=O [Example 29, Ethyl 2-{[(2-acetamidoethyl)thio]methyl}-6-{4-[(benzylsulfonyl)carbamoyl]piperidin-1-yl}-5-cyanonicotinate]
The IC50 of the first is 3.1-fold higher: 0.103 µM for the first, 0.033 µM for the second. The second is the more potent here.

`CCOC(=O)c1cc(Cl)c(N2CCC(C(=O)NS(=O)(=O)Cc3ccc(Cl)cc3)CC2)nc1SCCNC(C)=O` [Example 104, Ethyl 2-[(2-acetamidoethyl)thio]-5-chloro-6-(4-{[(4-chlorobenzyl)sulfonyl]carbamoyl}piperidin-1-yl)nicotinate] showed an IC50 of 0.057 µM.

same assay, conditions: functional inhibition of 2-Me-S-ADP induced P2Y12 signalling; membranes from P2Y12 transfected CHO-cells; EC80 concentration of agonist; read-out: IC50

First: CCOC(=O)c1cc(C#N)c(N2CCC(C(=O)NS(=O)(=O)Cc3ccccc3)CC2)nc1CS(C)(=O)=O [Example 12, Ethyl 6-{4-[(benzylsulfonyl)carbamoyl]piperidin-1-yl}-5-cyano-2-[(methylsulfonyl)methyl]nicotinate]
Second: CCOC(=O)c1cc(C#N)c(N2CCC(C(=O)NS(=O)(=O)Cc3ccccc3)CC2)nc1CN(C)C [Example 4, Ethyl 6-{4-[(benzylsulfonyl)carbamoyl]piperidin-1-yl}-5-cyano-2-[(dimethylamino)methyl]nicotinate]
The IC50 of the first is 2.2-fold lower: 0.13 µM for the first, 0.28 µM for the second. The first is the more potent here.
